Results reported in PMC10281575, “PfCRT mutations conferring piperaquine resistance in falciparum malaria shape the kinetics of quinoline drug binding and transport” (PLOS Pathogens, 2023).
Values joined by “and” are separate entries in the source; they are usually repeats but may differ in a detail not shown here. Equal entries are not always repeated.

Molecular target: T1, PfCRT^Dd2_F145I (Plasmodium falciparum, UniProt Q8IBZ9, A220S/F145I/I356T/K76T/M74I/N326S/N75E/Q271E/R371I)
T1 construct: expressed in transfected cells; host or cells: Xenopus laevis oocytes injected with in vitro transcribed RNA (pSP64T)
T1 sequence (Q8IBZ9 1-424 M74I/N75E/K76T/F145I/A220S/Q271E/N326S/I356T/R371I): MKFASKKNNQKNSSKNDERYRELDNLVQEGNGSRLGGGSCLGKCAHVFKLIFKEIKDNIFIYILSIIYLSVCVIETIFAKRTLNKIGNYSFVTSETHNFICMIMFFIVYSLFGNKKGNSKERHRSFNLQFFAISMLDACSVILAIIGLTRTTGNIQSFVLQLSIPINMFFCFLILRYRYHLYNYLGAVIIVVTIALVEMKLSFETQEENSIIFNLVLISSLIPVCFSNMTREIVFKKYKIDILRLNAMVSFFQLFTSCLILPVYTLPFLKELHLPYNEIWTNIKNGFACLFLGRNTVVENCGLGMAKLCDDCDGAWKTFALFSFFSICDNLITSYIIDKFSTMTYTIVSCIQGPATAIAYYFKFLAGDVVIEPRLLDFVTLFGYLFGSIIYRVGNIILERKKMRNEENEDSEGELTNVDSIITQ
Assay: Radiolabeled drug uptake in X. laevis oocytes expressing PfCRT^Dd2_F145I
Assay type: cell-based
Description: The two kinetic parameters were derived by fitting the Michaelis-Menten equation to the kinetic data (Table 1).
A codon-optimized coding sequence of the Dd2 isoform of PfCRT (PfCRT^Dd2) was subcloned into the pSP64T expression vector [21]. To generate the necessary mutations to introduce the amino acid substitutions H97Y, F145I, M343L or G353V into the pfcrt sequence, the overlap extension method was used. A region from the 5’-untranslated Xenopus β-globin sequence to the respective 3’ region, containing the full length pfcrt coding sequence, was amplified using the following primer pairs: for the H97Y mutation, numbers 1/4 and 2/3; for the F145I mutation, numbers 1/6 and 2/5; for the M343L mutation, numbers 1/8 and 2/7; and for the G353V mutation, numbers 1/10 and 2/9 (for primers, see S2 Table). Both PCR products were used as template for amplification of the final product using primers number 1/2. The resulting fragment was cloned into the pSP64T expression vector, and the presence of the desired mutation was confirmed by sequencing.
Adult female X. laevis frogs (purchased from NASCO) were anesthetized by submersion in a solution of 0.3% (w/v) 3-amino benzoate methanesulfonate for 15 min. Sections of the ovary were surgically removed and placed in Ca^2+-free ND96 buffer supplemented with 0.1% collagenase D (w/v; Roche), 0.5% BSA (w/v) and 9 mM Na2HPO4 at 18°C for 14–16 h while gently shaking. The oocytes were then washed several times with ND96 buffer (5 mM HEPES, pH 7.5, 96 mM NaCl, 2 mM KCl, 1.8 mM CaCl2, 1 mM MgCl2), supplemented with […] gentamycin. Healthy-looking stage V-VI oocytes were manually selected and randomly grouped for injection. A codon-optimized coding sequence of PfCRT was subcloned into the pSP64T expression vector and subsequently linearized using the restriction endonuclease BamHI or SalI (New England Biolabs GmbH). RNA for injection was transcribed in vitro using the mMESSAGE mMACHINE SP6 Transcription kit (Ambion), diluted with nuclease-free water to a final concentration of 0.6 μg/μL and stored at -80°C. RNA was injected using precision-bore glass capillary tubes (3.5-inch glass capillaries; Drummond Scientific Co.), which were pulled on a vertical puller (P-87 Flaming/Brown micropipette puller, Sutter Instrument Co.) and graduated. The micropipettes were connected to a microinjector (Nanoject II Auto-Nanoliter Injector, Drummond Scientific Co.). Injection was conducted under stereomicroscopic control. 50 nL of nuclease-free water alone (control oocytes) or 50 nL of nuclease-free water containing 30 ng of RNA was injected per oocyte. Injected oocytes were kept for 72 h at 18°C in ND96 buffer with two daily buffer changes before being used for further experiments.
Drug transport assays were performed as previously described. Briefly, measurements of radiolabeled drug uptake were made over 1 h, unless otherwise specified. […] Where specified, one or more unlabeled drugs were also present at the indicated concentrations. […] The uptake assays were terminated by removing the oocytes from the reaction medium and washing them three times with 2 mL of ice-cold ND96 buffer. Each oocyte was transferred to a separate scintillation vial and lysed by the addition of 200 μL of a 5% SDS solution. The radioactivity in the sample was measured using a liquid scintillation analyser Tri-Carb 4910 TR (PerkinElmer). Water-injected oocytes were analyzed in parallel as a negative control. The buffer from each condition was measured in duplicate in parallel to each experiment to transform counts per minute into pmol of drug. Drug uptake attributable to PfCRT was determined by subtracting the background uptake from water-injected oocytes from that of PfCRT-expressing oocytes.

[1] = 50 μM PPQ, pH 6.0, total uptake, one value per biological replicate
[2] = 50 μM PPQ, pH 6.0, water-injected uptake subtracted, per replicate
[3] = 60 min, pH 6, per biological replicate

Clc1ccc2c(N3CCN(CCCN4CCN(c5ccnc6cc(Cl)ccc56)CC4)CC3)ccnc2c1 [PPQ, piperaquine]
PfCRTDd2_F145I-mediated PPQ uptake at 10 µM PPQ (10 µM PPQ, single replicates): 11.21 pmol oocyte-1 h-1 and 11.88 pmol oocyte-1 h-1 and 9.04 pmol oocyte-1 h-1
PfCRTDd2_F145I PPQ uptake at 10 min [1]: 41.61 pmol oocyte-1 and 17.68 pmol oocyte-1 and 66.82 pmol oocyte-1 and 63.70 pmol oocyte-1 and 39.93 pmol oocyte-1
PfCRTDd2_F145I PPQ uptake at 30 min [1]: 65.21 pmol oocyte-1 and 116.16 pmol oocyte-1 and 126.02 pmol oocyte-1
PfCRTDd2_F145I PPQ uptake at 60 min [1]: 236.23 pmol oocyte-1 and 329.69 pmol oocyte-1 and 256.17 pmol oocyte-1 and 126.53 pmol oocyte-1 and 203.02 pmol oocyte-1 and 85.96 pmol oocyte-1 and 54.49 pmol oocyte-1 and 109.72 pmol oocyte-1 and 205.44 pmol oocyte-1 and 121.75 pmol oocyte-1 and 41.63 pmol oocyte-1
PfCRTDd2_F145I PPQ uptake at 90 min [1]: 231.09 pmol oocyte-1 and 187.07 pmol oocyte-1 and 164.98 pmol oocyte-1 and 158.85 pmol oocyte-1
PfCRTDd2_F145I PPQ uptake at 120 min [1]: 355.30 pmol oocyte-1 and 204.11 pmol oocyte-1 and 281.88 pmol oocyte-1 and 284.17 pmol oocyte-1 and 64.48 pmol oocyte-1 and 488.71 pmol oocyte-1
PfCRTDd2_F145I PPQ uptake at 180 min [1]: 182.19 pmol oocyte-1 and 278.77 pmol oocyte-1 and 329.69 pmol oocyte-1 and 378.75 pmol oocyte-1
PfCRTDd2_F145I-mediated PPQ uptake at 10 min [2]: 21.57 pmol oocyte-1 and 6.53 pmol oocyte-1 and 19.62 pmol oocyte-1 and 21.70 pmol oocyte-1 and 15.89 pmol oocyte-1
PfCRTDd2_F145I-mediated PPQ uptake at 30 min [2]: 25.28 pmol oocyte-1 and 34.52 pmol oocyte-1 and 15.41 pmol oocyte-1
PfCRTDd2_F145I-mediated PPQ uptake at 60 min [2]: 39.58 pmol oocyte-1 and 153.01 pmol oocyte-1 and 36.72 pmol oocyte-1 and 18.65 pmol oocyte-1 and 19.44 pmol oocyte-1 and 16.68 pmol oocyte-1 and 27.82 pmol oocyte-1 and 75.44 pmol oocyte-1 and 27.59 pmol oocyte-1 and 15.54 pmol oocyte-1 and 75.68 pmol oocyte-1
PfCRTDd2_F145I-mediated PPQ uptake at 90 min [2]: 89.48 pmol oocyte-1 and 78.18 pmol oocyte-1 and 49.49 pmol oocyte-1 and 48.14 pmol oocyte-1
PfCRTDd2_F145I-mediated PPQ uptake at 120 min [2]: 115.65 pmol oocyte-1 and 103.98 pmol oocyte-1 and 53.31 pmol oocyte-1 and 32.06 pmol oocyte-1 and 52.11 pmol oocyte-1 and 114.20 pmol oocyte-1
PfCRTDd2_F145I-mediated PPQ uptake at 180 min [2]: 46.86 pmol oocyte-1 and 115.74 pmol oocyte-1 and 109.59 pmol oocyte-1 and 113.43 pmol oocyte-1
PfCRTDd2_F145I-mediated PPQ uptake at 50 µM PPQ (50 µM PPQ, single replicates): 27.82 pmol oocyte-1 h-1 and 75.44 pmol oocyte-1 h-1 and 27.59 pmol oocyte-1 h-1 and 75.68 pmol oocyte-1 h-1 and 39.58 pmol oocyte-1 h-1 and 36.72 pmol oocyte-1 h-1 and 42.92 pmol oocyte-1 h-1
PfCRTDd2_F145I-mediated PPQ uptake at 100 µM PPQ (100 µM PPQ, single replicates): 60.49 pmol oocyte-1 h-1 and 74.22 pmol oocyte-1 h-1 and 87.33 pmol oocyte-1 h-1 and 56.31 pmol oocyte-1 h-1
PfCRTDd2_F145I-mediated PPQ uptake at 200 µM PPQ (200 µM PPQ, single replicates): 98.82 pmol oocyte-1 h-1 and 131.61 pmol oocyte-1 h-1 and 62.02 pmol oocyte-1 h-1 and 88.46 pmol oocyte-1 h-1
PfCRTDd2_F145I-mediated PPQ uptake at 300 µM PPQ (300 µM PPQ, single replicates): 115.45 pmol oocyte-1 h-1 and 117.23 pmol oocyte-1 h-1 and 91.14 pmol oocyte-1 h-1
PfCRTDd2_F145I-mediated PPQ uptake at 400 µM PPQ (400 µM PPQ, single replicates): 130.32 pmol oocyte-1 h-1 and 101.99 pmol oocyte-1 h-1 and 105.11 pmol oocyte-1 h-1
PfCRTDd2_F145I-mediated PPQ uptake at 500 µM PPQ (500 µM PPQ, single replicates): 124.15 pmol oocyte-1 h-1 and 149.83 pmol oocyte-1 h-1 and 96.18 pmol oocyte-1 h-1
PfCRTDd2_F145I-mediated PPQ uptake at 10 µM PPQ [3]: 11.21 pmol oocyte-1 h-1 and 11.88 pmol oocyte-1 h-1 and 9.04 pmol oocyte-1 h-1
PfCRTDd2_F145I-mediated PPQ uptake at 50 µM PPQ [3]: 39.58 pmol oocyte-1 h-1 and 36.72 pmol oocyte-1 h-1 and 42.92 pmol oocyte-1 h-1 and 27.82 pmol oocyte-1 h-1 and 75.44 pmol oocyte-1 h-1 and 27.59 pmol oocyte-1 h-1 and 75.68 pmol oocyte-1 h-1
PfCRTDd2_F145I-mediated PPQ uptake at 100 µM PPQ [3]: 60.49 pmol oocyte-1 h-1 and 74.22 pmol oocyte-1 h-1 and 87.33 pmol oocyte-1 h-1 and 56.31 pmol oocyte-1 h-1
PfCRTDd2_F145I-mediated PPQ uptake at 200 µM PPQ [3]: 98.82 pmol oocyte-1 h-1 and 131.61 pmol oocyte-1 h-1 and 62.02 pmol oocyte-1 h-1 and 88.46 pmol oocyte-1 h-1
PfCRTDd2_F145I-mediated PPQ uptake at 300 µM PPQ [3]: 115.45 pmol oocyte-1 h-1 and 117.23 pmol oocyte-1 h-1 and 91.14 pmol oocyte-1 h-1
PfCRTDd2_F145I-mediated PPQ uptake at 400 µM PPQ [3]: 130.32 pmol oocyte-1 h-1 and 101.99 pmol oocyte-1 h-1 and 105.11 pmol oocyte-1 h-1
PfCRTDd2_F145I-mediated PPQ uptake at 500 µM PPQ [3]: 124.15 pmol oocyte-1 h-1 and 149.83 pmol oocyte-1 h-1 and 96.18 pmol oocyte-1 h-1
Km (Michaelis-Menten fit, 10-500 μM drug, 60 min, pH 6, read-out: KM, Michaelis constant): 115 ± 7 µM
increase of Vmax by the F145I substitution (versus PfCRT^Dd2): 14%
